According to patent US20190290769A1, “Hydrogel Compositions” (The Trustees of the University of Pennsylvania, priority 2018, published 2019):
≈ marks a conversion by molar mass, not a printed value.

Tested on: T3565 cultured glioma stem cell
Test: MTS assay of valproic acid on glioma stem cell viability
Format: cell-based
Conditions: T3565 cells, varying concentrations
Description: In vitro testing of valproic acid on glioma stem cell and non-stem cells.

IC50: 600 µg/mL (≈ 4.16 mM)
SMILES: CCCC(CCC)C(=O)O [valproic acid]
